Values joined by “and” are separate entries in the source; they are usually repeats but may differ in a detail not shown here. Identical values can stand only once. Toxic doses and inconclusive results are not listed.
Tested on: P388 leukemia ip, CD2F1 mice, survival T/C
Assay: NCI In Vivo Anticancer Drug Screen. Data for tumor model P388 Leukemia (intraperitoneal) in CD2F1 (CDF1) mice
Conditions: endpoint: median survival time, higher = longer survival
Outline: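 Mice carrying the transplanted tumor received test compound or vehicle. Survival was recorded in each group, and the value is the treated-group measurement divided by that of the vehicle-treated control group.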

[1] = dose: 60.0 mg/kg/injection, schedule: Q01DX005 (ip), vehicle: saline with Tween-80
[2] = dose: 120.0 mg/kg/injection, schedule: Q01DX005 (ip), vehicle: saline with Tween-80
[3] = dose: 50.0 mg/kg/injection, schedule: Q04DX003 (ip), vehicle: saline with Tween-80
[4] = dose: 100.0 mg/kg/injection, schedule: Q04DX003 (ip), vehicle: saline with Tween-80
[5] = dose: 12.5 mg/kg/injection, schedule: Q01DX009 (ip), vehicle: saline with Tween-80
[6] = dose: 25.0 mg/kg/injection, schedule: Q01DX009 (ip), vehicle: saline with Tween-80
[7] = dose: 50.0 mg/kg/injection, schedule: Q01DX009 (ip), vehicle: saline with Tween-80
[8] = dose: 100.0 mg/kg/injection, schedule: Q01DX009 (ip), vehicle: saline with Tween-80
[9] = dose: 50.0 mg/kg/injection, schedule: Q01DX005 (ip), vehicle: saline with Tween-80
[10] = dose: 100.0 mg/kg/injection, schedule: Q01DX005 (ip), vehicle: saline with Tween-80
[11] = dose: 50.0 mg/kg/injection, schedule: Q01DX009 (ip), vehicle: Klucel (hydroxypropylcellulose) (HPC)
[12] = dose: 100.0 mg/kg/injection, schedule: Q01DX009 (ip), vehicle: Klucel (hydroxypropylcellulose) (HPC)
[13] = dose: 200.0 mg/kg/injection, schedule: Q01DX009 (ip), vehicle: Klucel (hydroxypropylcellulose) (HPC)
[14] = dose: 200.0 mg/kg/injection, schedule: Q01DX009 (ip), vehicle: saline with Tween-80
[15] = dose: 50.0 mg/kg/injection, schedule: Q01DX005 (ip), vehicle: Klucel (hydroxypropylcellulose) (HPC)
[16] = dose: 100.0 mg/kg/injection, schedule: Q01DX005 (ip), vehicle: Klucel (hydroxypropylcellulose) (HPC)
[17] = dose: 200.0 mg/kg/injection, schedule: Q01DX005 (ip), vehicle: Klucel (hydroxypropylcellulose) (HPC)
[18] = dose: 100.0 mg/kg/injection, schedule: Q04DX002 (ip), vehicle: Klucel (hydroxypropylcellulose) (HPC)
[19] = dose: 200.0 mg/kg/injection, schedule: Q04DX002 (ip), vehicle: Klucel (hydroxypropylcellulose) (HPC)

For `COC(=O)/C=c1/s/c(=C\C(C)=N)[nH]c1=O`, the T/C [1] was 90 % of control and the T/C [2] was 89 % of control.

`C1CCN(P(N2CCCCC2)N2CCCCC2)CC1` was tested, and the T/C (dose: 25.0 mg/kg/injection, schedule: Q04DX003 (ip), vehicle: saline with Tween-80) was 100 % of control, the T/C [3] was 100 % of control and the T/C [4] was 102 % of control and 104 % of control.

In the case of `c1ccc2sc(SSN3CC4CCC(CC4)C3)nc2c1`, the T/C [5] is reported as 102 % of control, the T/C [6] is reported as 107 % of control and the T/C [7] is reported as 123 % of control. For the same molecule, the T/C [8] was 115 % of control.

In the case of `CC(C)=CC(C(=O)C1CC1)C(CC(=O)C1CC1)C(C)C` (stereo not given), the T/C (dose: 25.0 mg/kg/injection, schedule: Q01DX005 (ip), vehicle: saline with Tween-80) is reported as 99 % of control, the T/C [9] is reported as 92 % of control and the T/C [10] is reported as 92 % of control.

For `O=C1C=C2COC(O)CC2CC1` (stereo not given), the T/C (dose: 100.0 mg/kg/injection, schedule: Q04DX003 (ip), vehicle: Klucel (hydroxypropylcellulose) (HPC)) was 104 % of control, the T/C (dose: 200.0 mg/kg/injection, schedule: Q04DX003 (ip), vehicle: Klucel (hydroxypropylcellulose) (HPC)) was 105 % of control and the T/C (dose: 400.0 mg/kg/injection, schedule: Q04DX003 (ip), vehicle: Klucel (hydroxypropylcellulose) (HPC)) was 111 % of control.

`N#CC1C(=O)NC(=O)C(C#N)C1c1ccc(C2C(C#N)C(=O)NC(=O)C2C#N)cc1` (stereo not given) was tested, and the T/C [11] was 105 % of control, the T/C [12] was 100 % of control and the T/C [13] was 113 % of control.

With `O=C(Oc1ccccc1OC(=O)c1ccccc1)c1ccccc1` the T/C (dose: 6.25 mg/kg/injection, schedule: Q01DX009 (ip), vehicle: saline with Tween-80) was 108 % of control, the T/C [5] was 102 % of control and the T/C [6] was 106 % of control. The T/C [7] was 108 % of control.

For `COC(=O)C(C)n1c(C(C)C)csc1=S` (stereo not given), the T/C [9] was 111 % of control, the T/C [10] was 110 % of control and the T/C (dose: 200.0 mg/kg/injection, schedule: Q01DX005 (ip), vehicle: saline with Tween-80) was 98 % of control.

With `CC(=O)/C(C=NC1CC(N=C/C(C(C)=O)=C(/C)O)CC(N=C/C(C(C)=O)=C(/C)O)C1)=C(/C)O` (stereo not given) the T/C [7] was 101 % of control, the T/C [8] was 101 % of control and the T/C [14] was 93 % of control.

`C#CO[C@@H]1C[C@H](C)CCC1C(C)C` (stereo not given in full) was tested, and the T/C [1] was 100 % of control and the T/C [2] was 106 % of control.

For `CS(=O)(=O)OCC(O)C(O)C(O)C(O)COS(C)(=O)=O` (stereo not given), the T/C (dose: 50.0 mg/kg/injection, schedule: Q01DX010 (ip), vehicle: saline) was 100 % of control, the T/C (dose: 100.0 mg/kg/injection, schedule: Q01DX010 (ip), vehicle: saline) was 100 % of control and the T/C (dose: 200.0 mg/kg/injection, schedule: Q01DX010 (ip), vehicle: saline) was 172 % of control. For the same molecule, the T/C (dose: 400.0 mg/kg/injection, schedule: Q01DX010 (ip), vehicle: saline) was 209 % of control.

With `N=Cc1c(O)n(C2CCCCC2)c(=O)[nH]c1=O` the T/C [8] was 90 % of control and the T/C (dose: 400.0 mg/kg/injection, schedule: Q01DX009 (ip), vehicle: saline with Tween-80) was 95 % of control.

`CNc1c(C(=O)Nc2ccccc2)c(=O)n(C)c(=O)n1C` was tested, and the T/C (dose: 100.0 mg/kg/injection, schedule: Q01DX001 (ip), vehicle: Klucel (hydroxypropylcellulose) (HPC)) was 94 % of control, the T/C (dose: 200.0 mg/kg/injection, schedule: Q01DX001 (ip), vehicle: Klucel (hydroxypropylcellulose) (HPC)) was 92 % of control and the T/C (dose: 400.0 mg/kg/injection, schedule: Q01DX001 (ip), vehicle: Klucel (hydroxypropylcellulose) (HPC)) was 93 % of control.

For `O=C1c2ccccc2C(=O)C1(Br)c1ccc(Cl)cc1`, the T/C (dose: 100.0 mg/kg/injection, schedule: Q04DX002 (ip), vehicle: saline with Tween-80) was 96 % of control, the T/C (dose: 200.0 mg/kg/injection, schedule: Q04DX002 (ip), vehicle: saline with Tween-80) was 101 % of control and the T/C (dose: 400.0 mg/kg/injection, schedule: Q04DX002 (ip), vehicle: saline with Tween-80) was 99 % of control.

`CNC(=O)Oc1cccc2c1C(=O)OC2=O` was tested, and the T/C (dose: 100.0 mg/kg/injection, schedule: Q01DX001 (ip), vehicle: saline with Tween-80) was 100 % of control, the T/C (dose: 200.0 mg/kg/injection, schedule: Q01DX001 (ip), vehicle: saline with Tween-80) was 92 % of control and the T/C (dose: 400.0 mg/kg/injection, schedule: Q01DX001 (ip), vehicle: saline with Tween-80) was 102 % of control.

In the case of `O=c1[nH]c2ccccc2n1CCCN1CCN(C(c2ccccc2)c2ccccc2)CC1`, the T/C [7] is reported as 102 % of control, the T/C [8] is reported as 94 % of control and the T/C [14] is reported as 95 % of control.

For `CNC(C)C(O)c1ccccc1` (stereo not given), the T/C [3] was 95 % of control, the T/C [4] was 95 % of control and the T/C (dose: 200.0 mg/kg/injection, schedule: Q04DX003 (ip), vehicle: saline with Tween-80) was 100 % of control.

For `CN1C(=O)Cn2c(n[nH]c(=O)c2=O)-c2cc(Cl)ccc21`, the T/C [11] was 95 % of control and the T/C [12] was 86 % of control.

For `N=c1ccccn1CCO`, the T/C (dose: 60.0 mg/kg/injection, schedule: Q01DX005 (ip), vehicle: saline) was 94 % of control and the T/C (dose: 120.0 mg/kg/injection, schedule: Q01DX005 (ip), vehicle: saline) was 99 % of control.

`COc1c2c(cc3c1C(O)=CC(=O)C3=O)OCO2` was tested, and the T/C [15] was 104 % of control, the T/C [16] was 100 % of control and the T/C [17] was 107 % of control.

For `COc1c(CCl)c2c(c(OC)c1OC)COC2=O`, the T/C [7] was 100 % of control, the T/C [8] was 90 % of control and the T/C [14] was 116 % of control.

With `NC(CCl)=NC1CCCCC1` the T/C (dose: 10.0 mg/kg/injection, schedule: Q04DX003 (ip), vehicle: saline) was 109 % of control, the T/C (dose: 15.0 mg/kg/injection, schedule: Q04DX003 (ip), vehicle: saline) was 107 % of control and the T/C (dose: 22.0 mg/kg/injection, schedule: Q04DX003 (ip), vehicle: saline) was 111 % of control. The T/C (dose: 33.0 mg/kg/injection, schedule: Q04DX003 (ip), vehicle: saline) was 116 % of control.

For `O=c1[nH]c2c(c(=O)[nH]1)CCCCCC2`, the T/C (dose: 25.0 mg/kg/injection, schedule: Q01DX009 (ip), vehicle: Klucel (hydroxypropylcellulose) (HPC)) was 102 % of control and 103 % of control, the T/C [11] was 99 % of control and 103 % of control and the T/C [12] was 91 % of control and 97 % of control. For the same molecule, the T/C [13] was 102 % of control and 94 % of control.

`S=C(NCc1ccccc1)N1CCC(CCCC2CCN(C(=S)NCc3ccccc3)CC2)CC1` was tested, and the T/C (dose: 60.0 mg/kg/injection, schedule: Q01DX005 (ip), vehicle: Klucel (hydroxypropylcellulose) (HPC)) was 92 % of control, the T/C (dose: 120.0 mg/kg/injection, schedule: Q01DX005 (ip), vehicle: Klucel (hydroxypropylcellulose) (HPC)) was 91 % of control and the T/C (dose: 240.0 mg/kg/injection, schedule: Q01DX005 (ip), vehicle: Klucel (hydroxypropylcellulose) (HPC)) was 88 % of control.

In the case of `O=c1c2cc(Br)ccc2nc2n1N=C(c1ccccc1)C(c1ccccc1)=NN2`, the T/C (dose: 50.0 mg/kg/injection, schedule: Q04DX002 (ip), vehicle: Klucel (hydroxypropylcellulose) (HPC)) is reported as 88 % of control, the T/C [18] is reported as 91 % of control and the T/C [19] is reported as 87 % of control.

In the case of `O=C1CNC(=O)c2cc(Cl)ccc2N1`, the T/C [11] is reported as 103 % of control, the T/C [12] is reported as 97 % of control and the T/C [13] is reported as 100 % of control.

For `COc1ccc2nc3cc(Cl)ccc3c(Nc3cccc(NC(C)=O)c3)c2n1`, the T/C (dose: 6.25 mg/kg/injection, schedule: Q01DX009 (ip), vehicle: other) was 108 % of control, the T/C (dose: 12.5 mg/kg/injection, schedule: Q01DX009 (ip), vehicle: other) was 102 % of control and the T/C (dose: 25.0 mg/kg/injection, schedule: Q01DX009 (ip), vehicle: other) was 102 % of control. The T/C (dose: 50.0 mg/kg/injection, schedule: Q01DX009 (ip), vehicle: other) was 98 % of control and the T/C (dose: 100.0 mg/kg/injection, schedule: Q01DX009 (ip), vehicle: other) was 99 % of control.

For `CC(=O)c1sc(SSc2sc(C(C)=O)c(C)c2[N+](=O)[O-])c([N+](=O)[O-])c1C`, the T/C [18] was 91 % of control, the T/C [19] was 89 % of control and the T/C (dose: 400.0 mg/kg/injection, schedule: Q04DX002 (ip), vehicle: Klucel (hydroxypropylcellulose) (HPC)) was 86 % of control.

`Cc1ccc2c(C(=O)O)cc(-c3ccc4c(c3)OCO4)nc2c1` was tested, and the T/C [11] was 98 % of control, the T/C [12] was 98 % of control and the T/C [13] was 106 % of control.

For `CC1(C)C(c2ccccc2)CC(c2cccc(O)c2)=[N+]1[O-]` (stereo not given), the T/C [11] was 97 % of control, the T/C [12] was 97 % of control and the T/C [13] was 101 % of control.

In the case of `COc1cc2c(c3c1c(=O)c1ccc(F)cc1n3C)C=CC(C)(C)O2`, the T/C [15] is reported as 98 % of control, the T/C [16] is reported as 108 % of control and the T/C [17] is reported as 109 % of control.

From PubChem BioAssay AID330 (DTP/NCI, 2004)
